Source: patent US20120149661A1, “TETRA-SUBSTITUTED HETEROARYL COMPOUNDS AND THEIR USE AS MDM2 AND/OR MDM4 MODULATORS” (NOVARTIS AG, priority 2009, published 2012)

melting point [°C]	Structure (SMILES)
218	Cc1ccc(-c2nc(C#N)c(-c3cccc(Cl)c3)n2-c2cc(Cl)ccc2C)cc1C [Example 3, 1-(5-chloro-2-methyl-phenyl)-5-(3-chloro-phenyl)-2-(3,4-dimethyl-phenyl)-1H-imidazole-4-nitrile]
141 to 143	CCNC(=O)c1nc(-c2ccc(C)c(C)c2)n(-c2cc(Cl)ccc2C)c1-c1cccc(Cl)c1 [Example 1, 1-(5-Chloro-2-methyl-phenyl)-5-(3-chloro-phenyl)-2-(3,4-dimethyl-phenyl)-1H-imidazole-4-carboxylic acid ethylamide]
157 to 160	O=Cc1cc(-c2nc(C(=O)O)c(-c3ccc(F)c(Cl)c3)n2-c2cccc(Cl)c2F)cs1 [Example 293, 5-(3-Chloro-4-fluoro-phenyl)-1-(3-chloro-2-fluoro-phenyl)-2-(5-formyl-thiophen-3-yl)-1H-imidazole-4-carboxylic acid]
